# Measurements: patent US4285949A, “Vincamine derivatives, their preparation and therapeutical use” (Omnichem Societe Anonyme, priority 1978, dated 1981)
# Key:
# mice = assay: Hypobaric anoxia test on mice; assay type: in vivo, mice (Charles River stock); details: intragastric, 15 minutes before; for Survival time: 190 mm Hg (5.25% oxygen), control 39 (±2); for Survival time Variation %: 190 mm Hg, increase vs control animals
# Procedure: Charles River stock mice of the same sex, weighing about 20±2 g are shared into three lots of 10 animals each. The lots 1 and 2 comprise treated animals, i.e. those having received either a substance to be tested or vincamine, together with solvent, at 1 ml/100 g of body weight. The third lot comprises control animals i.e. those having only received solvent at 1 ml/100 g of body weight.
# The compounds examined are administered by intragastric route 15 minutes before the experiment.
# The animals are placed in an atmosphere impoverished in oxygen by creating a partial vacuum (190 mm Hg, corresponding to 5.25% oxygen), in about 30 seconds.
# The survival time of the mice is measured with a chronometer. Said time is increased by the agents capable of enhancing oxygenation of tissues and more particularly brain oxygenation. The percentages of survival time increase with respect to the values obtained for the control animals are calculated.
# The doses were selected to obtain a 50-70% increase of the survival time of the animals under the experimental conditions.
# [1] = Acute toxicity, LD50 by intravenous route in mice (Lichtfield and Wilcoxon); details: mouse, in vivo
# Procedure: The compounds of the invention as well as vincamine were administered by intravenous route to Charles River stock mice. The 50% lethal doses (LD50) where determined graphically according to the method of Lichtfield and Wilcoxon (J. Pharmacol. Exp. Therap. […], 96, 99).
Structure (SMILES),Survival time (mice; 30 mg/kg),Survival time Variation % (mice; 30 mg/kg),LD50 ([1]; iv),Survival time (mice; 200 mg/kg),Survival time Variation % (mice; 200 mg/kg),"LD50 ([1]; mice, intravenous)",Survival time (mice; 20 mg/kg),Survival time Variation % (mice; 20 mg/kg)
"CC[C@]12C=CCN3CCc4c(n(c5ccc(Cl)cc45)[C@@](O)(C(=O)OC)C1)[C@@H]32 [OC-231 N, 10-Chloro-Δ14-vincamine]",60 (±1),+53%,47 mg/kg,,,,,
CC[C@]12CCCN3CCc4c(n(c5ccccc45)[C@@](O)(C(=O)OC)C1)[C@@H]32 [Vincamine],,,,58 (±4),+49%,47 mg/kg,,
"CC[C@]12C=CCN3CCc4c(n(c5ccc(Cl)cc45)[C@](O)(C(=O)OC)C1)[C@@H]32 [OC-231 E, 10-Chloro-16-epiΔ14-vincamine]",62 (±6),+55%,47 mg/kg,,,,,
"CC[C@]12C=CCN3CCc4c(n(c5ccc(Cl)cc45)C(C(=O)OC)=C1)[C@@H]32 [OC-233, 10-Chloro-apo-Δ14-vincamine]",,,52 mg/kg,,,,57 (±4),+46%
